Laboratory results from patent publication US20240166626A1, “Compounds and Methods for Preventing, Treating, or Ameliorating Airway Disease” (THOMAS JEFFERSON UNIVERSITY, priority 2021, published 2024).

Target: β2AR (Homo sapiens, UniProt P07550)
Experiment: cAMP measurement by ELISA in HEK 293 cells stably overexpressing β2AR
Format: cell-based
Experimental: Schematic of screening methodologies for cAMP production and β-arrestin binding. Cells were treated with the unbiased beta-agonist isoproterenol (ISO)±test compounds. The primary high throughput screen utilized a luciferase-based cAMP biosensor, GLOSENSORTM (Promega), and an enzyme complementation-based assay, […]® (DiscoveRx). Independent secondary screening utilized a cAMP ELISA and BRET for β-arrestin recruitment. […] Secondary screen for cAMP production by ELISA. […] Cells were lysed and cAMP production was measured. […] Dose response curve for DFPQ as measured by BRET. […] Data for dose response curve was taken 12 min post ISO addition. n=3. […] Cells were lysed and cAMP production was measured by ELISA. […] Cells were read every three minutes for 18 minutes on a PolarStar Optima plate reader (BMG) to establish peak signal. […] Luminescence was determined at room temperature (23-25° C.) on a PolarStar Optima plate reader (BMG). […] Relative assay bias was calculated from the ratio of normalized cAMP and arrestin recruitment responses. […] BRET was measured using a Tecan Infinite F500 microplate reader. […] Bound [35 S]GTPγS was collected by rapid filtration on GF/B filters, washed 4 times with 4 ml of cold GTPγS wash buffer and analyzed by liquid scintillation counting. […] Immunoprecipitated proteins were separated by SDS-PAGE and analyzed by western blot using a β2AR C-terminal tail or phospho-specific antibody. […]

Chain of β2AR (P07550 whole entry): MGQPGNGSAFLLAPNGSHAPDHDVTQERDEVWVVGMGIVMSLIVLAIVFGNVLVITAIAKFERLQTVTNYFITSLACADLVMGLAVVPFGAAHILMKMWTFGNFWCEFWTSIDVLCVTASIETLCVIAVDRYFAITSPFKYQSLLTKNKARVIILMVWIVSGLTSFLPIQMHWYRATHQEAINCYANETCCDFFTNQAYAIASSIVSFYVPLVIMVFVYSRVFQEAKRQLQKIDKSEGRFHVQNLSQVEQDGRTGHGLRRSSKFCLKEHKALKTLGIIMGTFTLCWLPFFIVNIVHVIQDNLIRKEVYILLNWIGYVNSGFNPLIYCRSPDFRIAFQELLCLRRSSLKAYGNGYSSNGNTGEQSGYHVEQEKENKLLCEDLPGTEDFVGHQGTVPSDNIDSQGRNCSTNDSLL

- effect on ISO-stimulated cAMP production (10 μM DFPQ, 1 μM ISO 10 min, FIG. 1B): no effect
- effect on ISO dose response curves, cAMP production readout (increasing concentrations up to 10 μM DFPQ, FIG. 1E): no effect
SMILES: Fc1ccc(Nc2nc(NC3CCCCC3)c3ccccc3n2)cc1F [DFPQ, N^4-cyclohexyl-N^2-(3,4-difluorophenyl)quinazoline-2,4-diamine]
